Assay results published in paper PMC6305410, “High-Throughput Screening for Bacterial Glycosyltransferase Inhibitors” (Frontiers in Cellular and Infection Microbiology, 2018).

Target: T1, NleB1 (Escherichia coli, UniProt Q8XBX8)
T1 construct: GST-EHEC-NleB1 in pET42a (GST/His tagged), expressed in E. coli BL21 (DE3), nickel purified; some tag cleavage noted
Details: inhibitor; for % NleB1 inhibition (µM compound) / 10: 10 µM; for % NleB1 inhibition (µM compound) / 20: 20 µM; for % NleB1 inhibition (µM compound) / 40: 40 µM; for % NleB1 inhibition (µM compound) / 80: 80 µM; for % NleB1 inhibition (µM compound) / 160: 160 µM

Row | Compound | % NleB1 inhibition (µM compound) / 10 | % NleB1 inhibition (µM compound) / 20 | % NleB1 inhibition (µM compound) / 40 | % NleB1 inhibition (µM compound) / 80 | % NleB1 inhibition (µM compound) / 160
1 | CCCCCCCCN1[C@@H](CC(=O)OC)c2ccc(/C=C/C(=O)OC)cc2S1(=O)=O [KUC102268N] | 25.3% | 20.8% | 27.1% | 33.3% | 27.9%
2 | CCCCCCCCN1[C@@H](CC(=O)OC)c2cc(F)ccc2S1(=O)=O [KUC101907N] | 23.0% | 22.1% | 22.4% | 29.9% | 42.2%
3 | CCCCCCCCCCCCN1[C@@H](CC(=O)O)c2cc(C(F)(F)F)ccc2S1(=O)=O [KUC101994N] | 40.6% | 48.0% | 60.1% | 80.4% | 94.3%
4 | CCC[C@H]1[C@@H](OC(=O)NCc2ccc(OC)cc2)CC[C@@]23CCCN2C(=O)CCC[C@@H]13 [KUC112136N] | 15.7% | 22.0% | 20.8% | 28.5% | 30.5%
5 | O=C(Cn1cc(COc2c(F)c(F)cc(F)c2F)nn1)c1ccc(O)cc1 [KUC104092N] | 39.5% | 42.1% | 57.8% | 67.2% | 80.6%
6 | COc1cccc(N2[C@@H](CC(=O)O)c3ccc(/C=C/C(=O)O)cc3S2(=O)=O)c1 [KUC102262N] | 27.6% | 34.2% | 35.9% | 41.7% | 46.5%
7 | C[C@H]1CC[C@]2(CCC(=O)N2CCCOC(=O)c2ccccc2)CC1 [KUC110967N] | 45.2% | 53.8% | 62.0% | 71.4% | 78.5%
8 | CCCCCCC(=O)N1C/C=C\C(c2ccc(OC)cc2)N(Cc2ccc(F)cc2)C(=O)[C@@H]1Cc1ccccc1 (stereo partly drawn) [KUC101608N] | 15.6% | 17.3% | 23.2% | 30.3% | 32.5%
9 | COc1ccc(C2CC(O)(c3ccccc3)Oc3c(C)ccc(C)c32)cc1 (stereo not drawn) [KUC101437N] | 10.8% | 13.9% | 23.3% | 39.1% | 57.3%
10 | O=C(c1ccc(F)cc1)N1CCCC2(CC(c3cccc(Cl)c3)=CO2)C1 (stereo not drawn) [KUC111570N] | 3.2% | 3.8% | 5.2% | 24.2% | 42.6%
11 | CCC(=O)c1ccc(OCc2cn(CC(=O)c3ccc(O)cc3)nn2)cc1 [KUC104108N] | 21.0% | 35.3% | 49.4% | 67.7% | 88.0%
12 | C[C@@H]1CCCN1c1ccc2c(c1)O[C@@H]1CCN(C1)S2(=O)=O [KUC111139N] | 32.7% | 34.1% | 35.7% | 38.7% | 40.7%
13 | O=S1(=O)CC(N2CCN(Cc3ccccc3F)CC2)CN1Cc1cn(Cc2cccc(Cl)c2)nn1 (stereo not drawn) [KUC108236N] | 13.5% | 26.7% | 13.1% | 12.7% | 18.4%
14 | CC(=O)Nc1ccc(OCc2cn(CC(=O)c3ccc(O)cc3)nn2)cc1 [KUC104101N] | 48.1% | 59.3% | 74.6% | 91.3% | 98.1%
15 | O=C1CN(Cc2ccccc2)S(=O)(=O)c2ccccc21 [KUC101184N] | 2.9% | 18.5% | 23.8% | 33.3% | 44.7%
16 | O=C(NC1CCC(=O)N(CCSc2ccccc2)CC1)OCc1ccccc1 (stereo not drawn) [KUC102830N] | 16.9% | 20.9% | 21.9% | 25.7% | 38.2%

Row | Compound | % NleB1 inhibition (µM compound) / 10 | % NleB1 inhibition (µM compound) / 20 | % NleB1 inhibition (µM compound) / 40 | % NleB1 inhibition (µM compound) / 80 | % NleB1 inhibition (µM compound) / 160
17 | COc1ccc(-c2ccc(CN3C(C(C)C)C(=O)N(Cc4cn(CCC5OCCO5)nn4)CCS3(=O)=O)cc2)cn1 (stereo not drawn) [KUC105137N] | 13.7% | 25.7% | 41.5% | 64.5% | 79.7%
18 | COc1ccc(OCc2cn(CC(=O)c3ccc(O)cc3)nn2)cc1 [KUC104109N] | 35.4% | 43.6% | 53.9% | 67.3% | 82.9%
19 | CN(C)CCN1CCN(C2CN(Cc3cn(Cc4ccc(F)cc4)nn3)S(=O)(=O)C2)CC1 (stereo not drawn) [KUC108117N] | 5.6% | 23.7% | 25.1% | 21.8% | 21.8%
20 | O=C(Cn1cc(COc2ccccc2C(F)(F)F)nn1)c1ccc(O)cc1 [KUC104085N] | 36.1% | – | 51.8% | 63.6% | 78.4%
21 | CCCCN1CC(COCc2ccccc2)Oc2cccc(Oc3ccc(F)cc3OC)c2S1(=O)=O (stereo not drawn) [KUC106008N] | 21.4% | 22.4% | 20.7% | 31.6% | 55.9%
22 | COC(=O)[C@H](C(C)C)N1Cc2nnn(Cc3ccccc3)c2-c2ccccc2S1(=O)=O [KUC110604N] | 4.8% | 15.1% | 17.9% | 21.1% | 17.9%
23 | O=C1CS(=O)(=O)N(Cc2cccc(F)c2)c2ccc(Br)cc21 [KUC103319N] | 32.5% | 37.2% | 49.0% | 68.8% | 81.7%
24 | COc1cc(C(C)=O)ccc1OCc1cn(CC(=O)c2ccc(O)cc2)nn1 [KUC104076N] | 32.0% | 44.9% | 45.1% | 61.1% | 75.5%
25 | Cc1ccc2c(c1)C1CS(=O)(=O)N(C3CCCC3)C(=O)N1C2 (stereo not drawn) [KUC109525N] | 26.3% | 31.5% | 20.9% | 19.5% | 29.3%
26 | COCOCCn1cc(CN2CCS(=O)(=O)N(Cc3ccc(-c4ccc(F)nc4)cc3)C(CC(C)C)C2=O)nn1 (stereo not drawn) [KUC105149N] | 34.4% | 38.8% | 42.6% | 55.9% | 69.5%
27 | Cc1cccc(C(=O)N2CCC(=O)N([C@H](COCc3ccc(Cl)cc3)Cc3ccccc3)CC2)c1 [KUC100143N] | 35.9% | 38.0% | 39.2% | 42.0% | 63.3%
28 | O=C(Cn1cc(COc2cccc([N+](=O)[O-])c2)nn1)c1ccc(O)cc1 [KUC104086N] | 24.5% | 24.5% | 34.2% | 32.8% | 50.5%
29 | COc1ccc2cc([C@H](C)C(=O)OCc3cn(CC(=O)c4ccc(O)cc4)nn3)ccc2c1 [KUC104115N] | 40.2% | 44.0% | 48.2% | 61.4% | 78.6%
30 | Cc1cccc(C)c1OCc1cn(CC(=O)c2ccc(O)cc2)nn1 [KUC104090N] | 36.8% | 44.9% | 53.2% | 69.2% | 85.8%
31 | O=C(O)c1cc(-c2ccc(-c3c(-c4ccco4)noc3-c3ccccc3)cc2)nc2ccccc12 [KUC102644N] | 50.1% | 58.4% | 75.0% | 89.4% | 97.2%
32 | COc1ccc(C(CCN2CCOCC2)c2c(OC)cc(OC)c3c2OC(=O)CC3c2ccc(OC)cc2)cc1 (stereo not drawn) [KUC101459N] | 14.9% | 26.2% | 9.4% | 18.8% | 44.1%
